# Measured values as given in ChEMBL document CHEMBL4130449, “Bioactive Seco-Lanostane-Type Triterpenoids from the Roots of Leplaea mayombensis” (J Nat Prod, 2017).
# System: MDA-MB-231
# Experiment: Cytotoxicity against human MDA-MB-231 cells after 3 days by Celltiter-Glo assay
# Assay type: functional, cell-based
# Details: MDA-MB-231, 72 h
row,SMILES,IC50
1,C=C(C)[C@H]1CC=C2[C@@H](CC[C@]3(C)[C@@H]([C@@H](CCC=C(C)C)C(=O)O)CC[C@@]23C)[C@]1(C)CCC(=O)O,127 µM
2,C=C(C)[C@H]1CC=C2[C@@H](CC[C@]3(C)[C@@H]([C@@H](CCC=C(C)C)C(=O)O)CC[C@@]23C)[C@]1(C)CCC(=O)NCc1ccc(Br)cc1,140 µM
3,C=C(C)[C@H]1CC=C2[C@@H](CC[C@]3(C)[C@@H]([C@@H](CCC=C(C)C)C(=O)O)CC[C@@]23C)[C@]1(C)CCC(=O)OC,55 µM
4,C=C(C)[C@H]1CC=C2[C@@H](CC[C@]3(C)[C@@H]([C@@H](CCC=C(C)C)C(=O)OC)CC[C@@]23C)[C@]1(C)CCC(=O)OC,63.5 µM
5,CC[C@H](/C=C/[C@@H](C)[C@H]1CC[C@H]2[C@@H]3CC=C4C[C@@H](O)CC[C@]4(C)[C@H]3CC[C@]12C)C(C)C [STIGMASTEROL],564 µM
